Key:
[1] = target: T1, Recombinant human carbonic anhydrase IX (Homo sapiens, UniProt Q16790); experiment: hCA IX inhibition, 4-nitrophenyl acetate (4-NPA) esterase assay; type: biochemical; settings: mean ± standard error
T1 construct: purchased Sino Biological Inc, Beijing, China
Method: Carbonic anhydrases are able to catalyze the conversion 4-nitrophenyl acetate (4-NPA) to 4-nitrophenol. […] One × Assay buffer is composed of 15 mmol/L 4-(2-hydroxyethyl)-1-piperazineethanesulfonic acid (HEPES) (pH = 7.4), 0.01% tetraethylene glycol monododecyl ether (BRIJ) and 100 mmol/L NaCl. […] Then, 18 μL of enzyme solution was transferred into 384-well assay plates in triplicate. Stock solutions of the inhibitor (10 mmol/L) were prepared using DMSO as solvent, and then diluted 1:3 with DMSO. […] The normalized data were then fit to a sigmoidal dose-response curve using GraphPad Prism 5.0 software, La Jolla, CA, USA to obtain the IC50. Final enzyme concentration was 5 ng/μL.

[2] = test system: CA IX over intracellular CA I; set-up: method as in PMID 25254302; settings: cited from earlier work
[3] = test system: CA IX over intracellular CA II; set-up: method as in PMID 25254302; settings: cited from earlier work

IC50 [1] [µM]	melting point [°C]	SMILES	selectivity for CA IX over CA I [2] [fold]	selectivity for CA IX over CA II [3] [fold]
0.0218 ± 0.00318	159.5 to 161.2	Cc1ccc(S(=O)(=O)NC2C(NC(=S)Nc3ccc(S(N)(=O)=O)cc3)OC(CO)C(O)C2O)cc1 [Compound 7a, N-[4-(Aminosulfonyl)phenyl]-N′-[2′-(4′-methylbenzenesulfonylamino)-2′-deoxy-β-D-glucopyranosyl]thiourea]		
0.0219 ± 0.00037	175.2 to 177.1	Cc1ccccc1S(=O)(=O)N[C@@H]1[C@@H](O)[C@H](O)[C@@H](CO)O[C@H]1NC(=S)Nc1ccc(S(N)(=O)=O)cc1 [Compound 7b, N-[4-(Aminosulfonyl)phenyl]-N′-[2′-(2′-methylbenzenesulfonylamino)-2′-deoxy-β-D-glucopyranosyl]thiourea]		
0.0238 ± 0.00051	165 to 166.3	COc1ccc(S(=O)(=O)N[C@@H]2[C@@H](O)[C@H](O)[C@@H](CO)O[C@H]2NC(=S)Nc2ccc(S(N)(=O)=O)cc2)cc1 [Compound 7c, N-[4-(Aminosulfonyl)phenyl]-N′-[2′-(4′-methoxybenzenesulfonylamino)-2′-deoxy-β-D-glucopyranosyl]thiourea]		
0.0256 ± 0.00215	178 to 179.6	NS(=O)(=O)c1ccc(NC(=S)N[C@@H]2O[C@H](CO)[C@@H](O)[C@H](O)[C@H]2NS(=O)(=O)c2ccc(F)cc2)cc1 [Compound 7d, N-[4-(Aminosulfonyl)phenyl]-N′-[2′-(4′-fluorobenzenesulfonylamino)-2′-deoxy-β-D-glucopyranosyl]thiourea]		
0.0115 ± 0.00093	164.4 to 165.2	NS(=O)(=O)c1ccc(NC(=S)N[C@@H]2O[C@H](CO)[C@@H](O)[C@H](O)[C@H]2NS(=O)(=O)c2cc(F)cc(F)c2)cc1 [Compound 7e, N-[4-(Aminosulfonyl)phenyl]-N′-[2′-(3′,5′-difluorobenzenesulfonylamino)-2′-deoxy-β-D-glucopyranosyl]thiourea]		
0.01 ± 0.00023	164 to 165.4	NS(=O)(=O)c1ccc(NC(=S)NC2OC(CO)C(O)C(O)C2NS(=O)(=O)c2ccc(C(F)(F)F)cc2)cc1 [Compound 7f, N-[4-(Aminosulfonyl)phenyl]-N′-[2′-(4′-trifluoromethylbenzenesulfonylamino)-2′-deoxy-β-D-glucopyranosyl]thiourea]		
0.0269 ± 0.00028	167.2 to 168.8	NS(=O)(=O)c1ccc(NC(=S)N[C@@H]2O[C@H](CO)[C@@H](O)[C@H](O)[C@H]2NS(=O)(=O)c2ccc(Cl)cc2)cc1 [Compound 7g, N-[4-(Aminosulfonyl)phenyl]-N′-[2′-(4′-chlorobenzenesulfonylamino)-2′-deoxy-β-D-glucopyranosyl]thiourea]		
0.0213 ± 0.00129	174.1 to 176	NS(=O)(=O)c1ccc(NC(=S)N[C@@H]2O[C@H](CO)[C@@H](O)[C@H](O)[C@H]2NS(=O)(=O)c2ccc(Br)cc2)cc1 [Compound 7h, N-[4-(Aminosulfonyl)phenyl]-N′-[2′-(4′-bromobenzenesulfonylamino)-2′-deoxy-β-D-glucopyranosyl]thiourea]		
0.0126 ± 0.00096	172.9 to 174.7	NS(=O)(=O)c1ccc(NC(=S)N[C@@H]2O[C@H](CO)[C@@H](O)[C@H](O)[C@H]2NS(=O)(=O)c2cccc(Br)c2)cc1 [Compound 7i, N-[4-(Aminosulfonyl)phenyl]-N′-[2′-(3′-bromobenzenesulfonylamino)-2′-deoxy-β-D-glucopyranosyl]thiourea]		
0.0254 ± 0.0038	174.7 to 176	NS(=O)(=O)c1ccc(NC(=S)N[C@@H]2O[C@H](CO)[C@@H](O)[C@H](O)[C@H]2NS(=O)(=O)c2ccc([N+](=O)[O-])cc2)cc1 [Compound 7j, N-[4-(Aminosulfonyl)phenyl]-N′-[2′-(4′-nitrobenzenesulfonylamino)-2′-deoxy-β-D-glucopyranosyl]thiourea]		
0.0156 ± 0.00044	169.7 to 171.7	NS(=O)(=O)c1ccc(NC(=S)N[C@@H]2O[C@H](CO)[C@@H](O)[C@H](O)[C@H]2NS(=O)(=O)c2ccccc2[N+](=O)[O-])cc1 [Compound 7k, N-[4-(Aminosulfonyl)phenyl]-N′-[2′-(2′-nitrobenzenesulfonylamino)-2′-deoxy-β-D-glucopyranosyl]thiourea]		
0.0189 ± 0.00033	177.3 to 179.2	NS(=O)(=O)c1ccc(NC(=S)N[C@@H]2O[C@H](CO)[C@@H](O)[C@H](O)[C@H]2NS(=O)(=O)c2cccc([N+](=O)[O-])c2)cc1 [Compound 7l, N-[4-(Aminosulfonyl)phenyl]-N′-[2′-(3′-nitrobenzenesulfonylamino)-2′-deoxy-β-D-glucopyranosyl]thiourea]		
0.0219 ± 0.00049	169 to 170.6	N#Cc1ccc(S(=O)(=O)N[C@@H]2[C@@H](O)[C@H](O)[C@@H](CO)O[C@H]2NC(=S)Nc2ccc(S(N)(=O)=O)cc2)cc1 [Compound 7m, N-[4-(Aminosulfonyl)phenyl]-N′-[2′-(4′-cyanobenzenesulfonylamino)-2′-deoxy-β-D-glucopyranosyl]thiourea]		
0.02478 ± 5e-05	182.7 to 184.6	NS(=O)(=O)c1ccc(NC(=S)N[C@@H]2O[C@H](CO)[C@@H](O)[C@H](O)[C@H]2NS(=O)(=O)c2ccc3ccccc3c2)cc1 [Compound 7n, N-[4-(Aminosulfonyl)phenyl]-N′-[2′-(naphthalene-2′-sulfonylamino)-2′-deoxy-β-D-glucopyranosyl]thiourea]		
0.0669 ± 0.00326	164.8 to 166.2	CCS(=O)(=O)N[C@@H]1[C@@H](O)[C@H](O)[C@@H](CO)O[C@H]1NC(=S)Nc1ccc(S(N)(=O)=O)cc1 [Compound 7o, N-[4-(Aminosulfonyl)phenyl]-N′-(2′-ethylsulfonylamino-2′-deoxy-β-D-glucopyranosyl)thiourea]		
0.389 ± 0.0277	159.1 to 160.6	CCCS(=O)(=O)NC1C(NC(=S)Nc2ccc(S(N)(=O)=O)cc2)OC(CO)C(O)C1O [Compound 7p, N-[4-(Aminosulfonyl)phenyl]-N′-(2′-n-propylsulfonylamino-2′-deoxy-β-D-glucopyranosyl)thiourea]		
0.0721 ± 0.00615	157.4 to 159.4	CN(C)S(=O)(=O)N[C@@H]1[C@@H](O)[C@H](O)[C@@H](CO)O[C@H]1NC(=S)Nc1ccc(S(N)(=O)=O)cc1 [Compound 7q, N-[4-(Aminosulfonyl)phenyl]-N′-[2′-(N′,N′-dimethylsulfonylamino)-2′-deoxy-β-D-glucopyranosyl]thiourea]		
0.0658 ± 8e-05	172.8 to 174	NS(=O)(=O)c1ccc(NC(=S)N[C@@H]2O[C@H](CO)[C@@H](O)[C@H](O)[C@H]2NS(=O)(=O)c2cccs2)cc1 [Compound 7r, N-[4-(Aminosulfonyl)phenyl]-N′-[2′-(thiophene-2′-sulfonylamino)-2′-deoxy-β-D-glucopyranosyl]thiourea]		
1.29 ± 0.141	141.8 to 142.9	CC(=O)NC1C(NC(=S)Nc2ccc(S(N)(=O)=O)cc2)OC(COC(C)=O)C(OC(C)=O)C1OC(C)=O [Compound 9a, N-[4-(Aminosulfonyl)phenyl]-N′-(2′-acetylamino-3′,4′,6′-tri-O-acetyl-2′-deoxy-β-D-glucopyranosyl)thiourea]		
0.176 ± 0.00945	151.1 to 152.9	CC(=O)NC1C(NC(=S)Nc2ccc(S(N)(=O)=O)cc2)OC(CO)C(O)C1O [Compound 9b, N-[4-(Aminosulfonyl)phenyl]-N′-(2′-acetylamino-2′-deoxy-β-D-glucopyranosyl)thiourea]		
		NS(=O)(=O)OCCCCCNS(=O)(=O)[C@@H]1O[C@H](CO)[C@@H](O)[C@H](O)[C@H]1O [Compound A]	1200	3200

— PMC6154466, “Design, Synthesis, Molecular Docking Analysis, and Carbonic Anhydrase IX Inhibitory Evaluations of Novel N-Substituted-β-D-Glucosamine Derivatives that Incorporate Benzenesulfonamides” (Molecules : A Journal of Synthetic Chemistry and Natural …, 2017)
